Source: patent US20250354192A1, “METHODS FOR QUANTIFYING LIVE BACTERIA” (priority 2022, published 2025)

Key:
[1] = system: innate live bacterial populations in poultry facility swabs; assay: 3-step metabolic labeling of poultry facility swabs with or without EDA, PIPER; format: cell-based
Experimental: Experimental Detail: Swab samples were collected using sponge sticks (3M, Saint Paul, MN) soaked in Letheen broth (samples G, Q) or Neutralizing buffer (sample H). Samples were stored on ice and processed within 24 hours after collection. Eluents from the sponges were aseptically extracted and the rest was frozen at −80° C. until the time of analysis. Prior to 3-step metabolic labeling, an aliquot from each eluent was removed for serial dilution and plating on APC petrifilm (3M, Saint Paul, MN) and incubated as per manufacturer instructions to evaluate the number of total viable bacteria by the “gold standard” method. Each eluent sample was divided into two aliquots for incubation with EDA or without EDA, as a control for non-specific staining with the fluorophore. The 1st step of labeling was carried out by adding 5 μg/mL chloramphenicol and 1 mM EDA, where indicated, followed by 90 min incubation at 37° C. […]
FIG. 24 depicts how 3-step metabolic labeling detects innate live bacterial populations in poultry facility swabs. […] To convert the PIPER counts into the number of live bacteria per swab, the values were corrected for the volume of the viewing window relative to the total sample volume loaded into the cartridge lane, and the fraction of the total eluent volume analyzed.

Pseudomonas = assay: Two-step labeling with EDA versus NADA-Green, PIPER counts relative to SYBR labeling; format: cell-based; conditions: 1 mM EDA 30 minutes plus click reaction solution, compared with 1 mM NADA-Green 60-90 minutes
Description: Universal labeling of all bacteria presents some challenges. D-amino acid analogs must first penetrate the outer membrane of gram-negative bacteria to be incorporated into peptidoglycan. The smaller size of the “clickable” D-amino acids compared to the FDAAs helps achieve higher labeling efficiency for some gram-negative bacteria. Accordingly, and for example, FIGS. 11A-B depict two-step labeling using the “clickable” D-amino acid, EDA, which improves detection of Pseudomonas. Log phase Pseudomonas growing at 37° C. in BHI (with [Supplemented BHI, red bars] or without [blue bars] supplementation with 50 mM glucose and 10 mM sodium pyruvate) was incubated for 60-90 minutes with 1 mM NADA-Green (Bio-Techne, Minneapolis, MN); or for 30 minutes in the presence or absence of 1 mM clickable D-amino acid, EDA (D-propargylglycine, AK Scientific, Union City, CA). For the unlabeled cells or cells labeled with NADA-Green, the cells were pelleted after incubation and resuspended in 1×PBS. For the cells grown in the presence or absence of EDA, the cells were pelleted after incubation by centrifugation (10 min 10,000 g), and supernatant was discarded. Bacteria were washed with 1 mL of 1× PBS, pelleted by centrifugation again (10 min 10,000 g), and supernatant was discarded. […]

## C#CC[C@@H](N)C(=O)O [EDA, D-propargylglycine]
[1]; 1 mM EDA, 90 min at 37° C.
  increase in PIPER cell counts over (-EDA) control: ~1.5 log
[1]; swab samples H, G and Q
  signal on omitting EDA from the 1st step of labeling: dramatic reduction of the signal
Pseudomonas
  detection efficiency, cell counts relative to counts obtained by SYBR labeling: Highest detection efficiency
